Source: US20040171543A1, “Matrix metalloproteinase inhibitors and methods for identification of lead compounds” (priority 2002, published 2004)
Where a name gives a salt, the structure may show the parent alone. Read-outs that look alike come from different tables or passages of the source.

Columns and labels:
Assay type in all cases: biochemical
[1] = biological target: T1, MMP-13 catalytic domain (MMP-13CD) (Homo sapiens, UniProt P45452); assay: Fluorigenic peptide-1 substrate based assay, MMP-13CD, with/without AcNHOH; conditions: for IC50 Ratio (±): IC50 with AcNHOH divided by IC50 without; for IC50: FP1 substrate
T1 construct: The catalytic domain of the MMP-13 enzyme, namely matrix metalloproteinase-13 catalytic domain (“MMP-13CD”)
Protocol: The catalytic domain of the MMP-13 enzyme, namely matrix metalloproteinase-13 catalytic domain (“MMP-13CD”), rather than the corresponding full-length enzyme, MMP-13 was used in such assay.
50 mM HEPES buffer (pH 7.0)
2% DMSO (with or without inhibitor test compound)
1. Dispensed 2 μL inhibitor test sample (in 100% DMSO) into well.
2. Added 88 μL assay mixture and mixed well, avoiding bubbles.
3. Initiated reactions with 10 μL of 5 nM MMP-13CD; mixed well, avoiding bubbles.
4. Immediately measured the kinetics of the reactions at room temperature.
Alternatively, an endpoint read can also be used to determine reaction velocity provided the initial fluorescence of the solution, as recorded before addition of enzyme, is subtracted from the final fluorescence of the reaction mixture.

[2] = biological target: MMP-12 (Homo sapiens, UniProt P39900); assay: TPL (thiopeptolide) assay, MMP-12 (without and with AH)
Excerpt: (§1) The assays that can be used to evaluate the biological activity of various compounds for inhibiting MMPs are well-known and routinely used by those skilled in the art. They measure the amount by which a test compound reduces the hydrolysis of a thiopeptolide substrate caused by a matrix metalloproteinase enzyme. Such assays are described in detail by Ye et al., in Biochemistry, 1992;31(45): 11231-11235, which is incorporated herein by reference.
(§2) Thiopeptolide substrates show virtually no decomposition or hydrolysis in the absence of a matrix metalloproteinase enzyme. A typical thiopeptolide substrate commonly utilized for assays is Ac-Pro-Leu-Gly-thioester-Leu-Leu-Gly-OEt. A 100 μL assay mixture will contain 50 mM of 2-morpholinoethane sulfonic acid monohydrate (MES, pH 6.0) 10 mM CaCl2, 100 μM thiopeptolide substrate, and 1 mM 5,5′-dithio-bis-(2-nitro-benzoic acid) (DTNB). The thiopeptolide substrate concentration is varied from 10 to 800 μM to obtain Km and Kcat values. The change in absorbance at […] is monitored on a Thermo Max microplate reader (Molecular Devices, Menlo Park, Calif.) at room temperature (22° C.). The calculation of the amount of hydrolysis of the thiopeptolide substrate is based on E412=13600 m^−1 cm^−1 for the DTNB-derived product 3-carboxy-4-nitrothiophenoxide. Assays are carried out with and without matrix metalloproteinase inhibitor compounds, and the amount of hydrolysis is compared for a determination of inhibitory activity of the test compounds.
Although ligand size is not critical, a bulky ligand will block more binding sites of the MMP than a smaller ligand, and may thus prevent potential inhibitors that bind close to, but not at, the functional metal cation from being identified. Suitable ligands are therefore low molecular weight molecules, e.g. acetohydroxamic acid (CH3CONHOH) whose use is preferred.

[3] = biological target: MMP-3 (Homo sapiens, UniProt P08254); assay: TPL (thiopeptolide) assay, MMP-3
Excerpt: as §1, §2

[4] = biological target: T2, MMP-2 (Homo sapiens, UniProt P08253); assay: TPL (thiopeptolide) assay, MMP-2
T2 sequence (P08253 110-660): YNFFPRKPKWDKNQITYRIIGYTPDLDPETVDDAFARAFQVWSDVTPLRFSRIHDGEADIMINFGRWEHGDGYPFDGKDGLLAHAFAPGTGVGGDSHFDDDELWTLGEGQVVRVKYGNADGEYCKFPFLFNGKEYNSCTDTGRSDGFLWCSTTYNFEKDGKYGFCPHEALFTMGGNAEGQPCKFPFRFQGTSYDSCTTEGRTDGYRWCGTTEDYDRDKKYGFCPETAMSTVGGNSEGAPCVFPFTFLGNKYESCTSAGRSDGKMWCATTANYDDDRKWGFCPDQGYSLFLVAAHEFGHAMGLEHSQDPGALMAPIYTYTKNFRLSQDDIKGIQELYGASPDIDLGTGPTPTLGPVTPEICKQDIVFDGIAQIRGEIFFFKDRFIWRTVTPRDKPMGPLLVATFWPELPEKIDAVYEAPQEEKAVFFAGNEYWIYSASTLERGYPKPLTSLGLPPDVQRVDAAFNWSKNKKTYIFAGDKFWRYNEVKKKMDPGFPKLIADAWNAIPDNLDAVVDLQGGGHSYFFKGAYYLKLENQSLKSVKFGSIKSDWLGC
Excerpt: as §1, §2

[5] = biological target: MMP-9 (Homo sapiens, UniProt P14780); assay: TPL (thiopeptolide) assay, MMP-9
Excerpt: as §1, §2

[6] = biological target: T3, MMP-1 (Homo sapiens, UniProt P03956); assay: TPL (thiopeptolide) assay, MMP-1
T3 sequence (P03956 100-469): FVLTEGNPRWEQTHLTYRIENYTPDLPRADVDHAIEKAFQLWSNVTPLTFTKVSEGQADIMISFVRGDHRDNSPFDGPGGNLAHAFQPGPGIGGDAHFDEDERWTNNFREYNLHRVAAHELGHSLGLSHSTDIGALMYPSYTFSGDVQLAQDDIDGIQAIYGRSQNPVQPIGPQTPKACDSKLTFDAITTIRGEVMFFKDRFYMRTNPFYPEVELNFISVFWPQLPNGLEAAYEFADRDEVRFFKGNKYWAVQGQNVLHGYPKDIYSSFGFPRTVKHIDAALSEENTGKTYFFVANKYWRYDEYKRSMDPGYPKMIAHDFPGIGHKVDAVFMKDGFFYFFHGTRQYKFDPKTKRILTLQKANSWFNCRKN
Excerpt: as §1, §2

[7] = biological target: MMP-14 (Homo sapiens, UniProt P50281); assay: TPL (thiopeptolide) assay, MMP-14
Excerpt: as §1, §2

[8] = biological target: MMP-13 (Homo sapiens, UniProt P45452); assay: TPL (thiopeptolide) assay, MMP-13 (without and with AH)
Protocol: Thiopeptolide substrates show virtually no decomposition or hydrolysis in the absence of a matrix metalloproteinase enzyme. A typical thiopeptolide substrate commonly utilized for assays is Ac-Pro-Leu-Gly-thioester-Leu-Leu-Gly-OEt. A 100 μL assay mixture will contain 50 mM of 2-morpholinoethane sulfonic acid monohydrate (MES, pH 6.0) 10 mM CaCl2, 100 μM thiopeptolide substrate, and 1 mM 5,5′-dithio-bis-(2-nitro-benzoic acid) (DTNB). […] The change in absorbance at 405 mm is monitored on a Thermo Max microplate reader (Molecular Devices, Menlo Park, Calif.) at room temperature (22° C.). […] Assays are carried out with and without matrix metalloproteinase inhibitor compounds, and the amount of hydrolysis is compared for a determination of inhibitory activity of the test compounds.

[9] = biological target: T4, MMP-7 (Homo sapiens, UniProt P09237); assay: TPL (thiopeptolide) assay, MMP-7
T4 sequence (P09237 95-267): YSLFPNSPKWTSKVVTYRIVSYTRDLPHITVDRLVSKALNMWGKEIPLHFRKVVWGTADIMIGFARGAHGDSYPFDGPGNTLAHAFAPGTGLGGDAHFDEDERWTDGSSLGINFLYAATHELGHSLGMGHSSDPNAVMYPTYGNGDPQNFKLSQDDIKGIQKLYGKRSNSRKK
Excerpt: as §1
as §2, with “Assays are carried out with and without matrix metalloproteinase inhibitor compounds, and the amount of hydrolysis is compared for a determination of inhibitory activity of the test compounds.” left out

[10] = biological target: MMP-8 (Homo sapiens, UniProt P22894); assay: TPL (thiopeptolide) assay, MMP-8
Excerpt: as §1
as §2, with “Assays are carried out with and without matrix metalloproteinase inhibitor compounds, and the amount of hydrolysis is compared for a determination of inhibitory activity of the test compounds.” left out

[11] = TPL assay, without AH, read-out: IC50 MMP-12
[12] = TPL assay, without AH, read-out: IC50 MMP-13
[13] = in presence of acetohydroxamic acid (+AH), read-out: IC50 MMP12 (+AH)

MMP-9, sequence (P14780 94-707): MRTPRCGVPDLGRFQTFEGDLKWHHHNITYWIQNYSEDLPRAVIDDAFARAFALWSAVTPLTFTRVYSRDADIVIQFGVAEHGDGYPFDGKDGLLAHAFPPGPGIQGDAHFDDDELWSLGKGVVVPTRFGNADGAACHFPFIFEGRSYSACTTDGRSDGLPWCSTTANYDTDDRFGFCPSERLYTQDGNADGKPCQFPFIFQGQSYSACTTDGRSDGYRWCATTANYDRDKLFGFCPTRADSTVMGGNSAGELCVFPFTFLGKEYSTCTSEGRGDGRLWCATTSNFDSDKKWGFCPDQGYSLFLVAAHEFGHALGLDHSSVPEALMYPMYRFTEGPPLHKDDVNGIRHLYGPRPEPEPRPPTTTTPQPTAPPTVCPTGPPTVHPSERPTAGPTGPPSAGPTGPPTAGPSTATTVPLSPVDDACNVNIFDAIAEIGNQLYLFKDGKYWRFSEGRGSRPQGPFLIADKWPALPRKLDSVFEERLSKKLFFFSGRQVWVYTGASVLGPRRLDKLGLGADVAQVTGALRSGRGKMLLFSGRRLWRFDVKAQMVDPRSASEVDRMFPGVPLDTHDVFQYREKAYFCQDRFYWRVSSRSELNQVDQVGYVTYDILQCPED
MMP-3, sequence (P08254 100-477): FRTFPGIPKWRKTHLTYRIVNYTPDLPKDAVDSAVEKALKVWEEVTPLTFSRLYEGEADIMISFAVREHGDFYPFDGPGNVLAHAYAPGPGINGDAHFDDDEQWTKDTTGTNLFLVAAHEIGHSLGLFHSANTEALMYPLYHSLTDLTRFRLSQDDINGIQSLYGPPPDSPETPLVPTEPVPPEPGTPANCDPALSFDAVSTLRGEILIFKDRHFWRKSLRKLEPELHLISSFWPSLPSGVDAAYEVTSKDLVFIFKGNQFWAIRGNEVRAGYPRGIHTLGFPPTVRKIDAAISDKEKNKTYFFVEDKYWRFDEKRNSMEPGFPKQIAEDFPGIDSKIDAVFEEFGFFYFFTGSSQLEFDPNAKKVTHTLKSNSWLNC
MMP-12, sequence (P39900 106-470): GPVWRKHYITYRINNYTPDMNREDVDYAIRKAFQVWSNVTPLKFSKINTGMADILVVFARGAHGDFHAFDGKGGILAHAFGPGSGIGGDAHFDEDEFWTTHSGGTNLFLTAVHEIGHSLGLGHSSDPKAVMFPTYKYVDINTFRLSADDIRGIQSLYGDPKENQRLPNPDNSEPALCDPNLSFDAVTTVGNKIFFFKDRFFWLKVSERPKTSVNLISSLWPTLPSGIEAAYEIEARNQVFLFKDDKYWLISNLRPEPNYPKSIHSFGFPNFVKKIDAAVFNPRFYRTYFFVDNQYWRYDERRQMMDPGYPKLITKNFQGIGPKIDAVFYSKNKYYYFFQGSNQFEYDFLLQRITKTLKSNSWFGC
MMP-8, sequence (P22894 101-467): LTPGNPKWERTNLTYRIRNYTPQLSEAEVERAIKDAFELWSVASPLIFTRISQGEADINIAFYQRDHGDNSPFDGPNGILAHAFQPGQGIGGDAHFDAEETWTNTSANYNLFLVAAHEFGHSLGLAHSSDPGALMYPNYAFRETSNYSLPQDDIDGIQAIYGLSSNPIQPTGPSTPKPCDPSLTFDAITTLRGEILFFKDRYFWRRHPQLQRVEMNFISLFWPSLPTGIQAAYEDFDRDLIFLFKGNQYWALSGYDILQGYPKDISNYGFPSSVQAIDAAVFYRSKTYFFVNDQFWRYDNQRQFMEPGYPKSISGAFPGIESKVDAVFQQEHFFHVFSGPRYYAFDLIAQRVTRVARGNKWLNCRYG

IC50 [2, 11] [nM]	IC50 ([3]; read-out: IC50 MMP-3) [nM]	IC50 ([4]; read-out: IC50 MMP-2) [nM]	IC50 ([5]; read-out: IC50 MMP-9) [nM]	IC50 ([6]; read-out: IC50 MMP-1) [nM]	IC50 ([7]; read-out: IC50 MMP-14) [nM]	IC50 [8, 12] [nM]	IC50 [2, 13] [nM]	SMILES	other results
–	–	–	–	–	–	–	–	COc1ccc(C(=O)NCc2cccnc2)cc1C(=O)NCc1cccnc1 [Entry 7]	IC50 Ratio (±) [1]: 0.41
–	–	–	–	–	–	–	–	O=C(NC(=S)NCc1cc(-c2ccccc2)no1)c1ccccc1 [Entry 10]	IC50 ([1]; 0 mM AcNHOH, read-out: Without AcNHOH IC50): 2300 nM; IC50 ([1]; 15 mM AcNHOH (1 Kd), read-out: With AcNHOH IC50): 200 nM; IC50 Ratio (±) [1]: 0.08
> 30000	220	> 100000	> 30000	> 100000	> 100000	–	–	COc1ccc(CC#Cc2ccc3ncn(Cc4ccc(C(=O)O)cc4)c(=O)c3c2)cc1 [Example 1, 4-{6-[3-(4-Methoxy-phenyl)-prop-1-ynyl]-4-oxo-4H-quinazolin-3-ylmethyl}-benzoic acid]	–
> 100000	830	> 100000	> 30000	> 100000	> 100000	0.18	–	COc1ccc(CC#Cc2ccc3c(c2)c(=O)n(Cc2ccc(C(=O)O)cc2)c(=O)n3C)cc1 [Example 2, 4-{6-[3-(4-Methoxy-phenyl)-prop-1-ynyl]-1-methyl-2,4-dioxo-1,4-dihydro-2H-quinazolin-3-ylmethyl}-benzoic acid]	–
3400	160	> 100000	> 100000	> 100000	> 100000	1.2	–	COc1cccc(COC(=O)c2cc3c(=O)n(Cc4ccc(-c5nn[nH]n5)cc4)c(=O)[nH]c3s2)c1 [Example 3, 2,4-Dioxo-3-[4-(2H-tetrazol-5-yl)-benzyl]-1,2,3,4-tetrahydro-thieno[2,3-d]pyrimidine-6-carboxylic acid 3-methoxy-benzyl ester]	–
–	–	–	–	–	–	–	–	O=C(OCc1ccccc1)c1ccc2[nH]c(=O)n(Cc3ccccc3)c(=O)c2c1 [Example 4, 3-Benzyl-2,4-dioxo-1,2,3,4-tetrahydro-quinazoline-6-carboxylic acid benzyl ester]	IC50 ([9]; unit inferred, read-out: Activities measured by TPL assays, MMP-7): > 30000 nM; IC50 ([3]; unit inferred, read-out: Activities measured by TPL assays, MMP-3): > 30000 nM; IC50 ([4]; unit inferred, read-out: Activities measured by TPL assays, MMP-2): > 100000 nM; IC50 ([8]; TPL assay, unit inferred, read-out: Activities measured by TPL assays, MMP-13): 29.5 nM; IC50 ([5]; unit inferred, read-out: Activities measured by TPL assays, MMP-9): > 100000 nM; IC50 ([6]; unit inferred, read-out: Activities measured by TPL assays, MMP-1): > 30000 nM; IC50 ([7]; unit inferred, read-out: Activities measured by TPL assays, MMP-14): > 100000 nM
> 400	> 30000	> 30000	> 30000	> 30000	> 30000	0.14	12	O=C(O)c1ccc(CNC(=O)c2cc(-c3ccc(OC(F)(F)F)cc3)cs2)cc1 [Example 5, 4-({[4-(4-Trifluoromethoxyphenyl)thien-2-yl]carboxamido}methyl) benzoic acid]	IC50 ([9]; read-out: IC50 MMP-7): > 30000 nM; IC50 ([8]; in presence of acetohydroxamic acid (+AH), read-out: IC50 MMP13 (+AH)): 63 nM; IC50 [10]: > 30000 nM
14	> 1700	> 390	> 1400	> 101000	–	–	4	O=C(O)C[C@@H](NC(=O)c1cc(-c2ccc(-c3ccncc3)cc2)cs1)c1ccccc1 [Example 6, (2?)-3-({[4-1(pyridin-4-yl)phényl]-thièn-2-yl]carboxamido)(phényl)propanoic acid hydrochloride]	IC50 [8]: 270 nM; IC50 [10]: > 980 nM
17000	–	–	–	–	–	3600	270	CN1c2ccc(C3CN(Cc4ccccc4)C(=O)CO3)cc2CS1(=O)=O (centres unmarked) [Example 7, 4-Benzyl-6-(1-methyl-2,2-dioxo-2,3-dihydro-1H-2λ^6-benzo[c]isothiazol-5-yl)morpholin-3-one]	–
570	–	–	–	–	–	1900	15	O=C(NC[C@H]1CC[C@H](C(=O)O)CC1)c1cc(-c2ccc(-c3ccncc3)cc2)ns1 [Example 8, Trans 3-[4-(4-pyridyl)phenyl]-5-isothiazole carboxamido methyl-cyclohexane carboxylic acid, Potassium Salt]	–
